Measurements: ChEMBL document CHEMBL5137086, “Discovery of 1-(Hetero)aryl-β-carboline Derivatives as IDO1/TDO Dual Inhibitors with Antidepressant Activity” (J Med Chem, 2022)
Activity calls are given as the source filed them. The rule behind the calls is not given here.

Key:
[1] = Acute toxicity in mouse assessed as pathological changes in spleen at 10 to 20 mg/kg, ip administered once daily for 20 days by hematoxyin-eosin staining based analysis; assay type: organism-based; settings: in vivo, 480 h, dose 10-20 mg/kg, time 20 day
[2] = Acute toxicity in mouse assessed as pathological changes in heart at 10 to 20 mg/kg, ip administered once daily for 20 days by hematoxyin-eosin staining based analysis; assay type: organism-based; settings: in vivo, 480 h, dose 10-20 mg/kg, time 20 day
Mus musculus [3] = assay: Antidepressant activity in LPS induced mouse model assessed as suppression of microglia activation in hippocampus at 20 mg/kg, ip pretreated with compound administered once daily for 2 days followed by LPS injection; assay type: functional, organism-based; settings: time 2.0 day
Mus musculus [4] = assay: Antidepressant activity in LPS induced mouse model assessed as rescue of decrease in immobility time at 20 mg/kg, ip pretreated with compound administered once daily for 2 days followed by LPS injection by forced swim test; assay type: functional, organism-based; settings: time 2.0 day
[5] = Cmax in C57BL/6J mouse at 20 mg/kg, ip measured up to 24 hrs by LC-MS/MS analysis; assay type: ADME, organism-based; parameters: dose 20 mg/kg, time < 24 hrs, route ip; settings: in vivo
[6] = MRT (0 to infinity) in C57BL/6J mouse at 20 mg/kg, ip measured up to 24 hrs by LC-MS/MS analysis; assay type: ADME, organism-based; settings: in vivo
Mus musculus [7] = assay: Antiinflammatory activity in LPS induced mouse assessed as reduction in IL-1beta expression in hippocampus at 20 mg/kg, ip pretreated with compound administered once daily for 2 days followed by LPS injection by qPCR analysis; assay type: functional, organism-based; settings: time 2.0 day
[8] = AUC (0 to 24 hrs) in C57BL/6J mouse at 20 mg/kg, iv measured up to 24 hrs by LC-MS/MS analysis; assay type: ADME, organism-based; parameters: dose 20 mg/kg, time < 24 hrs, route iv; settings: in vivo
Mus musculus [9] = assay: Antiinflammatory activity in LPS induced mouse assessed as rescue of increase in TNF-alpha expression in activated microglia at 20 mg/kg, ip pretreated with compound administered once daily for 2 days followed by LPS injection; assay type: functional, organism-based; settings: time 2.0 day
[10] = target: Indoleamine 2,3-dioxygenase 1 (Homo sapiens, UniProt P14902); assay: Inhibition of IDO1 (unknown origin) assessed as reduction in kynurenine production using L-tryptophan as substrate incubated for 1 hr by absorbance based microplate reader analysis
[11] = Cmax in C57BL/6J mouse at 20 mg/kg, iv measured up to 24 hrs by LC-MS/MS analysis; assay type: ADME, organism-based; parameters: time < 24 hrs, dose 20 mg/kg, route iv; settings: in vivo
Mus musculus [12] = assay: Downregulation of kynurenine level in serum of LPS induced mouse at 20 mg/kg, ip pretreated with compound administered once daily for 2 days followed by LPS injection by UHPLC-HRMS analysis; assay type: functional, organism-based; settings: time 2.0 day

Indoleamine 2,3-dioxygenase 1, sequence (P14902 whole entry): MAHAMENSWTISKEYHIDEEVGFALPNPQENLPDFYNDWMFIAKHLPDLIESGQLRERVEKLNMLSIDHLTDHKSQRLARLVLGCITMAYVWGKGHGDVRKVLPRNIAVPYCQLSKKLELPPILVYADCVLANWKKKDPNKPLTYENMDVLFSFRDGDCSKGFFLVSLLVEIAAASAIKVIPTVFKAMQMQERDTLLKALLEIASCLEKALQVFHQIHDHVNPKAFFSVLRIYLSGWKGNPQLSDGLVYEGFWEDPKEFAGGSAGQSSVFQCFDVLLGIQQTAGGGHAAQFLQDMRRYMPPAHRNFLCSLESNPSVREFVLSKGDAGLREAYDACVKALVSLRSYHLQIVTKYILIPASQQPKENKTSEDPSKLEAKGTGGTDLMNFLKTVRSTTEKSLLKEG

c1ccc2c(c1)[nH]c1c(-c3c[nH]cn3)nccc12
Activity [1]: Non-Toxic
Activity [2]: Non-Toxic
Activity (Mus musculus [3]): Active
Activity (Mus musculus [4]): Active
Cmax [5]: 3880 ng/mL
MRT inf [6]: 1.04 h
Activity (Mus musculus [7]): Active
AUC(0-t) at 24 h [8]: 8550 ng·h/mL
Activity (Mus musculus [9]): Active
IC50 [10]: 3.53 µM
Cmax [11]: 5540 ng/mL
Activity (Mus musculus [12]): Active
